Reference: US20040219202A1, “Pharmaceutical composition comprising lipids comprising a polar and a nonpolar moiety” (priority 2001, published 2004)

Assays:
[1] = Net charge of cationic lipid; type: physicochemical; conditions: pH 7.4
Excerpt: The monoacetylenic analogues of DOPC, DOPE, DODAP and DOTAP were synthesised as described above. Standard lipids for comparisons (DOPC, DOPE and DOTAP (chloride salt)) were purchased from Sigma-Aldrich, Poole, Dorset, UK. Our invention the cationic, cholesterol-based lipid N^1-cholesteryloxycarbonyl-3,7-diazanononane-1,9-diamine (CDAN)—net charge=+1.6 at pH 7.4.CDAN (below) was synthesised by our group previously,^22 and is now available in a 1:1 molar ratio formulation with DOPE as Trojene™ (Avanti Polar Lipids, Inc., Alabaster, Ala., USA). [drawing 40]

C. tomentosicollis eggs = conditions: cited from earlier work
DNA topoisomerase I = biological target: T1, DNA topoisomerase I (Homo sapiens, UniProt P11387); conditions: cited from earlier work
T1 sequence (P11387 1-765): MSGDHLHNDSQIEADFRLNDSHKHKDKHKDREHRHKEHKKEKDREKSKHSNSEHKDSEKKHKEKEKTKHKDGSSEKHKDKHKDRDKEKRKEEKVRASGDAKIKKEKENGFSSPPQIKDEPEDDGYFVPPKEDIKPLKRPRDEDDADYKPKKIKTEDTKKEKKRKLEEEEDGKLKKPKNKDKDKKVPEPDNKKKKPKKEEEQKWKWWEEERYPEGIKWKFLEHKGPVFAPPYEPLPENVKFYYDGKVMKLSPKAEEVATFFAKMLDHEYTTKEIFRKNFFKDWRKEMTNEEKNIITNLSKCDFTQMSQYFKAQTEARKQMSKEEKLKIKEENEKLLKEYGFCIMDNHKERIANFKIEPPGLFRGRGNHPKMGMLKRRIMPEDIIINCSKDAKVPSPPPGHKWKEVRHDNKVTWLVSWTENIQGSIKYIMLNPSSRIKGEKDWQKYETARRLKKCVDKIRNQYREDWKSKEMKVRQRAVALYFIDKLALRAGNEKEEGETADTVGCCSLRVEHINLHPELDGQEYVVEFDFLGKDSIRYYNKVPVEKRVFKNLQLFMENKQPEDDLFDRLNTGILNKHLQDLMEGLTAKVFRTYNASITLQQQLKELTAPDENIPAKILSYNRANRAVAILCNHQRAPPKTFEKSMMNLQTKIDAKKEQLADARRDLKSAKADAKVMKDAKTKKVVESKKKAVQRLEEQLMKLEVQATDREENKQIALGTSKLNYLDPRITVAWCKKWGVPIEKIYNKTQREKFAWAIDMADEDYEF

DNA polymerase α = biological target: T2, DNA polymerase α (Homo sapiens, UniProt P09884); conditions: cited from earlier work
T2 sequence (P09884 1-1462): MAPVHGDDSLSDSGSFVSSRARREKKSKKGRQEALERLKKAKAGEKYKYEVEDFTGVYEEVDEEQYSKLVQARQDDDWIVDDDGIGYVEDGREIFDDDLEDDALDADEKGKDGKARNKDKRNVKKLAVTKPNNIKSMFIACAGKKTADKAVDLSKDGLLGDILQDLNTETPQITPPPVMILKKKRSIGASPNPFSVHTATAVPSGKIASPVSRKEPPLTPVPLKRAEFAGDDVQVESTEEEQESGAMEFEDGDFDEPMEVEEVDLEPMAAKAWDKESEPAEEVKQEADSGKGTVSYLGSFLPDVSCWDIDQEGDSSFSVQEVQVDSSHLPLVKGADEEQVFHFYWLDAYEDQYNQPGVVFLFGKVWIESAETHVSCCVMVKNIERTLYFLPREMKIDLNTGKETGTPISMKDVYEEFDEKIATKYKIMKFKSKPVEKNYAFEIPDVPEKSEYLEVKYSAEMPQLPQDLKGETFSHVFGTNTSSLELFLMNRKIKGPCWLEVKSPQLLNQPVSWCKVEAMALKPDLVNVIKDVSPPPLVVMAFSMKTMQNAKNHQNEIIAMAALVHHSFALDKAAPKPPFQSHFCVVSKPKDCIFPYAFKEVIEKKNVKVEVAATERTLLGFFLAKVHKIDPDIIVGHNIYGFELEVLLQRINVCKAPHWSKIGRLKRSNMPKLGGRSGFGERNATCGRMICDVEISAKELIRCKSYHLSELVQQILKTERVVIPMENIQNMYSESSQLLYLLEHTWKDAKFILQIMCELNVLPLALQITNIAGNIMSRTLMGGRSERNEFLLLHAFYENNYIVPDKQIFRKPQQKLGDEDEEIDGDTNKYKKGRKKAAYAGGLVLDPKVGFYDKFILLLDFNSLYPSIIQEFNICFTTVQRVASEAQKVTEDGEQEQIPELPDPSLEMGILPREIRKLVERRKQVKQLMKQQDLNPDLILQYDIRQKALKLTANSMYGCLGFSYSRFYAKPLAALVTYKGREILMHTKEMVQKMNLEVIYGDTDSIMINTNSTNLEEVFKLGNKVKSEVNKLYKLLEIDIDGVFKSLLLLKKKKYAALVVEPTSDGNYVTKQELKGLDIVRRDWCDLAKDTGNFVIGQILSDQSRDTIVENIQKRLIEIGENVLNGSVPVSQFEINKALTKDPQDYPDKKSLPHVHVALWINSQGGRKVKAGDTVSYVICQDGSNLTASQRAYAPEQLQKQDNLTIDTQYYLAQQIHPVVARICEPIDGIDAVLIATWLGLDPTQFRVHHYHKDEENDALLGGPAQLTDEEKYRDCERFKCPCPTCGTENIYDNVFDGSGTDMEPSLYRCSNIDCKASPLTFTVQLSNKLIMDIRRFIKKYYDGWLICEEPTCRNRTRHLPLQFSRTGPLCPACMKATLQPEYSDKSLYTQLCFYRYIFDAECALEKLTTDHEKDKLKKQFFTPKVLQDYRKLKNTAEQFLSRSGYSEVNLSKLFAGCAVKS

DNA = conditions: read-out: apparent DNA dissociation constant; cited from earlier work
[2] = biological target: T3, Cytochrome P4504A4 (CYP4A4) (Oryctolagus cuniculus, UniProt P10611); conditions: cited from earlier work
T3 sequence (P10611 5-510): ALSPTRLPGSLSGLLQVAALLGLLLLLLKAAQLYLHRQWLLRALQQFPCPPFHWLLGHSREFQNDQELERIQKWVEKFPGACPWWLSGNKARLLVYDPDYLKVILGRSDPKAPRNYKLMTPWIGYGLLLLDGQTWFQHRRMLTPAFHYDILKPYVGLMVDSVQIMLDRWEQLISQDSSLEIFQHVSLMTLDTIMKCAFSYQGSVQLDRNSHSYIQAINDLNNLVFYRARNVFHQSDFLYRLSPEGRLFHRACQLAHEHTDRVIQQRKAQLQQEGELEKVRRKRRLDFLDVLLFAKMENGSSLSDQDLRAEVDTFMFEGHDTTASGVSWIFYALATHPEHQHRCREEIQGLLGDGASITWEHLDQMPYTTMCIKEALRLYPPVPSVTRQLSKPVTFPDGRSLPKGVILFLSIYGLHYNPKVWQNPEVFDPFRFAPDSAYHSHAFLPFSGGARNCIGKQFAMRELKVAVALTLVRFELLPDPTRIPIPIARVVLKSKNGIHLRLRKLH

[3] = test system: ethanolamine-specific phospholipid base exchange reaction; conditions: rat liver microsomes; cited from earlier work
cytochrome P4504A1 = biological target: T4, cytochrome P4504A1 (Rattus norvegicus, UniProt P08516); conditions: cited from earlier work
T4 sequence (P08516 1-509): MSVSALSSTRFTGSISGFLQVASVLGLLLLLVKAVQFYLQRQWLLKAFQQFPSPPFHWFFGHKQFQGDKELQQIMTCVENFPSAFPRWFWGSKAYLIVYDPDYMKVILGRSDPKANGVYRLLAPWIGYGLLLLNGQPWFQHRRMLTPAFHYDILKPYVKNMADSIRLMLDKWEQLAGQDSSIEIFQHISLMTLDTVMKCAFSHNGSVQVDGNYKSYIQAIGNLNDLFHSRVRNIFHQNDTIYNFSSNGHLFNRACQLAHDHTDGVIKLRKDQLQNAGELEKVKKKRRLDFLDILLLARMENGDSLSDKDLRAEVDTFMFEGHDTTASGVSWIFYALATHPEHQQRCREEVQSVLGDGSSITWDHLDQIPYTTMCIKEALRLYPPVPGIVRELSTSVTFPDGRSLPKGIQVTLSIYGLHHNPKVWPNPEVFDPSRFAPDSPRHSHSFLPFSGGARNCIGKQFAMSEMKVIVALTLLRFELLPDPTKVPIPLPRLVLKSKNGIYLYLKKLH

[4] = test system: hepatic glutathione S-transferases; conditions: cited from earlier work
5-lipoxygenase = biological target: T5, 5-lipoxygenase (Homo sapiens, UniProt P09917); conditions: cited from earlier work
T5 sequence (P09917 1-674): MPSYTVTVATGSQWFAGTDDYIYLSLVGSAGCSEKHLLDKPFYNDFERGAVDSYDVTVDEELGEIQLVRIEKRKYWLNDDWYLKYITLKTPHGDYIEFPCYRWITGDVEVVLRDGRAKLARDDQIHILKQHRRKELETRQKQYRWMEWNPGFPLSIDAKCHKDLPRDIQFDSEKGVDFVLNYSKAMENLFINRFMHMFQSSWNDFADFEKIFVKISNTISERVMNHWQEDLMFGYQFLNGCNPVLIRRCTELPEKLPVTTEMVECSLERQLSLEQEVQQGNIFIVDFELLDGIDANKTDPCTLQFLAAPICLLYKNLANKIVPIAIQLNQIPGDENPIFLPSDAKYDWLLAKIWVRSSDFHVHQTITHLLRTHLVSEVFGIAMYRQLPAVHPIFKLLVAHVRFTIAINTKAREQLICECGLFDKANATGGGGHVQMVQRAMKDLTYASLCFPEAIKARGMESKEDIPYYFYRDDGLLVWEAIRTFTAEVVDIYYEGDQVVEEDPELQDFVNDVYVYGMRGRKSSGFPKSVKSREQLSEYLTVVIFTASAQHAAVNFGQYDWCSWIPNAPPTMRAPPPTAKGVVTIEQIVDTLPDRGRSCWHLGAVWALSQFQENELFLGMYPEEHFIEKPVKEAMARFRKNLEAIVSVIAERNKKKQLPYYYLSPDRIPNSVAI

cyclo-oxygenase = conditions: cited from earlier work
Fe(III)-LOX = conditions: cited from earlier work

Q: Which net charge [1] does the source give for `CC(C)CCC[C@@H](C)[C@H]1CC[C@H]2[C@@H]3CC=C4C[C@@H](OC(=O)NCCNCCCNCCN)CC[C@]4(C)[C@H]3CC[C@]12C` [CDAN, N^1-cholesteryloxycarbonyl-3,7-diazanononane-1,9-diamine] here?
A: The net charge was “+1.6”.

Q: Which “Hatching of C. tomentosicollis eggs” value (C. tomentosicollis eggs) does the source give for `CCCCCCCCCCCCC#CCCCC(=O)O` [Octadeca-5-ynoic acid] here?
A: The value was “inhibits the hatching”.

Q: Which “DNA topoisomerase I-mediated relaxation of a supercoiled plasmid DNA” value (DNA topoisomerase I) does the source give for `CCCCCCCCC#CCCCCCCCC(=O)O` [Octadeca-9-ynoic acid, octadeca-9-ynoic acid] here?
A: Its value is “does not inhibit”.

Q: What about the “topisomerase I-mediated DNA filter binding” value (DNA topoisomerase I) of the same compound?
A: The value was “inhibits”.

Q: What about the “Inhibition of DNA polymerase α” value (DNA polymerase α) of the same compound?
A: The value was “weakly inhibitory”.

Q: What about the Kd (DNA) of the same compound?
A: Its Kd is 1.8 mM.

Q: For `C#CCCCCCCCCCCCCCCCC(=O)O` [Octadeca-17-ynoic acid], which “Inhibition of the substrate-binding pocket of CYP4A4” value [2] is on record?
A: The value was “effective inhibitor”.

Q: Which results are given for `C#CCCCCCCCCC(=O)O` [Undeca-10-ynoic acid]?
A: Ethanolamine-specific phospholipid base exchange reaction [3]: inhibits; Inhibition of cytochrome P4504A1 (cytochrome P4504A1): inhibitor

Q: Which “Inhibition of mammalian hepatic glutathione S-transferases” value [4] does the source give for `CCCCCCCCC#CCC#CCC#CCCCC(=O)O` [eicosa-5,8,11-triynoic acid] here?
A: The value was “inhibits”.

Q: Which “Inhibition of 5-lipoxygenase” value (5-lipoxygenase) does the source give for `CCCCCC#CC#CC#CCCCCCCC(=O)O` [octadeca-8,10,12-triynoic acid] here?
A: The value was “weak inhibitors”.

Q: What about the Inhibition of cyclo-oxygenase (cyclo-oxygenase) of the same compound?
A: Its Inhibition of cyclo-oxygenase is “potent inhibitors”.

Q: Which “Inactivation of Fe(III)-LOX” value (Fe(III)-LOX) does the source give for `CCCCCC#CCC#CCCCCCCCC(=O)O` [octadeca-9,12-diynoic acid] here?
A: The value was “irreversibly inactivates”.
